According to ChEMBL document CHEMBL1156829 (Proc Natl Acad Sci U S A, 2008):
Peptide text beside a SMILES is read from it. * marks the point of attachment. Boc = CC(C)(C)OC(=O)*; OBn = c1ccc(CO*)cc1

Experiments:
Plasmodium falciparum [1] = experiment: NOVARTIS: Inhibition of Plasmodium falciparum W2 (drug-resistant) proliferation in erythrocyte-based infection assay; format: functional, organism-based; conditions: Plasmodium falciparum, W2; read-out: EC50
[2] = NOVARTIS: Cytotoxicity against human hepatocellular carcinoma cell line (Huh7); format: toxicity, cell-based, Huh-7; conditions: Huh7 cells (hepatocellular carcinoma cell line)
Plasmodium falciparum [3] = experiment: NOVARTIS: Inhibition of Plasmodium falciparum 3D7 (drug-susceptible) proliferation in erythrocyte-based infection assay; format: functional, organism-based; conditions: Plasmodium falciparum, 3D7

Row | Structure (SMILES) | EC50 (Plasmodium falciparum [1]) | CC50 [2] | EC50 (Plasmodium falciparum [3])
1 | CCN1CCN(c2cc(C)c3cc(NC(=O)/C=C/c4ccccc4Cl)ccc3n2)CC1 | > 1.25 µM | > 10 µM | 0.966 µM
2 | COc1ccc(C(=O)N2c3cc(C)ccc3C(Nc3ccc(C)cc3)CC2C)cc1 (stereo unspecified) | 2.62 µM | > 100 µM | > 12.5 µM
3 | O=C(O)c1cccc(NC(=O)c2ccc(N3C(=O)c4ccc(C(=O)Nc5cccc(C(=O)O)c5)cc4C3=O)cc2)c1 | 1.14 µM | > 100 µM | > 12.5 µM
4 | CCn1c(SCc2ccc(Cl)cc2Cl)nc2sc3c(c2c1=O)CCN(C)C3 | 0.9 µM | > 100 µM | 0.942 µM
5 | CCN(CC)c1ccc(/C=C/C23NC(=O)CCN2c2ccc(C)cc2C3(C)C)cc1 (stereo unspecified) | 1.21 µM | > 10.1 µM | 1.62 µM
6 | CCOc1ccc(CCN2C(=S)N(c3cccc(C(F)(F)F)c3)C(=O)C2CC(=O)Nc2ccc(C(=O)OC)cc2)cc1OCC (stereo unspecified) | 0.58 µM | 28.5 µM | 1.74 µM
7 | OCCNCCNCc1ccc2[nH]c3ccccc3c2c1 | 7.6 µM | 28.9 µM | 0.291 µM
8 | CC(=O)Nc1ccc(-c2nc3c4ccccc4c4ccc(I)cc4c3[nH]2)cc1 | 0.362 µM | > 100 µM | 0.296 µM
9 | CCOC(=O)CSC1=Nc2ccccc2C2=NC(Cc3ccccc3)C(=O)N12 (stereo unspecified) | 0.407 µM | > 10 µM | > 1.25 µM
10 | CCOC(=O)c1c(NC(C)=O)sc2c1CCN(C(C)C)C2 | 3.41 µM | > 100 µM | 1.56 µM
11 | O=C1NN(c2ccc(Br)cc2)C(=O)/C1=C\c1c(O)ccc2ccccc12 | 0.653 µM | > 10 µM | 0.856 µM
12 | N#Cc1ccc(CNC(=S)Nc2cc(Cl)ccc2Cl)cc1 | 0.238 µM | > 100 µM | 0.421 µM
13 | Fc1ccc(CSc2nc3cccnc3[nH]2)cc1 | 4.8 µM | > 100 µM | 3.62 µM
14 | CN1CCCC1CCNc1ncc(C(=O)NCc2ccccc2)c(NC2CCCC2)n1 (stereo unspecified) | > 1.25 µM | > 10 µM | 0.658 µM
15 | CCOC(=O)c1cn(CC)c2cc(N(C)CCc3ccc(OC)c(OC)c3)c(F)cc2c1=O | 0.0267 µM | > 100 µM | 0.103 µM
16 | COc1ccc(C(=O)N2C(C(=O)Nc3ccc(C)cc3)CSC2c2ccc(C(C)(C)C)cc2)cc1 (stereo unspecified) | 1.17 µM | > 2.97 µM | 1.04 µM
17 | CC1CC(C)CN(C(=O)c2sc3ccccc3c2Cl)C1 (stereo unspecified) | 0.0645 µM | > 100 µM | 0.0357 µM
18 | COc1ccccc1N1CCN(C(=O)Nc2ccc3ccccc3c2)CC1 | 0.315 µM | > 10 µM | > 1.28 µM
19 | CCCCCCc1ccc(/C(C=[N+](C)C)=C\N(C)C)cc1 | 0.26 µM | > 10 µM | 0.335 µM
20 | CCOC(=O)c1[nH]c2ccccc2c1N=NN(C)C | 0.376 µM | 36.1 µM | 0.128 µM
21 | CCCCCN(C(=O)Nc1ccccc1OC)C(C)c1nc2ccccc2c(=O)n1-c1ccccc1OCC (stereo unspecified) | 0.917 µM | > 10 µM | 0.843 µM
22 | COc1cc(C=NNC(=O)Cc2nnc(N)s2)ccc1O | > 1.11 µM | > 12.7 µM | > 1.25 µM
23 | COc1cccc(NCC(O)Cn2c3ccc(Cl)cc3c3cc(Cl)ccc32)c1 (stereo unspecified) | 1.19 µM | 51.3 µM | 2.13 µM

Row | Structure (SMILES) | EC50 (Plasmodium falciparum [1]) | CC50 [2] | EC50 (Plasmodium falciparum [3])
24 | COc1ccc(C(=O)n2nc(N)c3cc4ccc(C)cc4nc32)cc1[N+](=O)[O-] | > 12.5 µM | > 100 µM | > 5.42 µM
25 | COc1ccc(C2(CNCC(O)c3cccc([N+](=O)[O-])c3)CCCC2)cc1OC (stereo unspecified) | 0.0525 µM | > 100 µM | 0.49 µM
26 | CCOC(=O)C1=C(N)n2c(sc(=Cc3cccnc3)c2=O)=C(C(=O)OC)C1c1cccnc1 (stereo unspecified) | > 0.922 µM | > 10 µM | > 1.25 µM
27 | COc1ccc2cc(C)c3nnc(SCC(=O)N4CCN(C(=O)c5ccco5)CC4)n3c2c1 | 0.796 µM | > 100 µM | 1.13 µM
28 | COc1ccc(C2C(C(=O)Nc3cc(Cl)c(OC)cc3OC)c3ccccc3C(=O)N2C)cc1 (stereo unspecified) | 0.333 µM | > 100 µM | 0.378 µM
29 | CC1=C(CO)C(=O)O[C@@H]([C@@H](C)[C@H]2CC[C@H]3[C@@H]4C[C@H]5O[C@]56[C@@H](O)C=CC(=O)[C@]6(C)C4CC[C@]23C)C1 (stereo partly specified) | 1.68 µM | 3.63 µM | 4.97 µM
30 | CC[n+]1c(/C=C/C=C2\N(C)c3ccccc3C2(C)C)n(CCCOC(C)=O)c2ccccc21 | 0.416 µM | > 10 µM | 0.322 µM
31 | CCOC(=O)c1cnc2ccc(OCC)cc2c1NCC1CCCN1CC (stereo unspecified) | 1.15 µM | > 10 µM | > 0.74 µM
32 | CCn1c(SCc2ccc([N+](=O)[O-])cc2)nc2sc3c(c2c1=O)CCN(C)C3 | 0.808 µM | > 100 µM | 0.47 µM
33 | Cc1ccc(Cl)cc1N1C(=O)[C@@H]2[C@H](C1=O)C1c3ccccc3C=CN1[C@@H]2C(=O)c1cccs1 (stereo partly specified) | 0.529 µM | > 10 µM | 1.06 µM
34 | Cc1ccc(C2CC(=O)N3CN(c4ccc(Br)cc4)CSC3=C2C#N)o1 (stereo unspecified) | 1.35 µM | > 100 µM | > 12.5 µM
35 | CC(=O)N1c2ccccc2CC1C(=O)NCc1cccc(Cl)c1 (stereo unspecified) | > 6.46 µM | > 100 µM | > 12.5 µM
36 | CCc1ccc2c(c1)c1nnc(SCC(=O)NCCOC)nc1n2C | > 0.838 µM | > 10 µM | > 1.25 µM
37 | CC(C)CC(NC(=O)OC(C)(C)C)C(=O)NC(Cc1ccccc1)C(=O)OCc1ccccc1 (stereo not drawn) (Boc-Leu-Phe-OBn; configuration not given here) | 2.95 µM | > 100 µM | > 12.5 µM
38 | CCOC(=O)c1nnn(-c2nonc2N)c1-c1ccc(C)cc1 | 0.367 µM | > 100 µM | 0.303 µM
39 | CCOC(=O)c1c(NC(=O)COc2ccccc2[N+](=O)[O-])sc(C(C)=O)c1C | > 0.853 µM | > 10 µM | > 1.25 µM
40 | Cn1c(=O)c2c(ncn2CC(O)CN2CCCC2)n(C)c1=O (stereo unspecified) | > 1.19 µM | > 10 µM | > 1.25 µM
41 | O=C(CCc1ccccc1)NCCCCNc1ccnc2cc(Cl)ccc12 | < 0.0138 µM | > 10 µM | 0.142 µM
42 | COc1cc(CN(CCCN2CCOCC2)C(=O)Nc2cccc(C)c2)ccc1OCc1ccccc1 | 0.00839 µM | > 10 µM | > 1.25 µM
43 | COc1ccc(C(=O)NC(c2ccccc2Cl)c2cc(Cl)c3cccnc3c2O)cc1 (stereo unspecified) | 0.833 µM | > 87 µM | 2.37 µM
44 | CCCCOc1ccc(C(=O)Nc2c3c(nn2-c2ccc(C)cc2C)CSC3)cc1 | 1.02 µM | > 10 µM | > 1.52 µM
45 | COc1ccccc1C(=O)N1CCN(Cc2ccc3ccccc3c2)CC1 | 4.86 µM | > 100 µM | > 12.5 µM
46 | CCOC(=O)NC(=O)N1CCC(c2nc(-c3cc(C(C)(C)C)c(O)c(C(C)(C)C)c3)cs2)CC1 | 1.88 µM | > 10 µM | 1.66 µM

Row | Structure (SMILES) | EC50 (Plasmodium falciparum [1]) | CC50 [2] | EC50 (Plasmodium falciparum [3])
47 | COc1ccc(C(=O)C[N+]2=C(C)c3ccc(C)n3CC2)cc1 | 1.29 µM | > 100 µM | 1.17 µM
48 | Cc1cc(S(=O)(=O)NC(Cc2ccc([N+](=O)[O-])cc2)C(=O)O)c(Cl)cc1Cl (stereo unspecified) | 0.391 µM | > 10 µM | > 1.25 µM
49 | NC(=O)C(Cc1ccccc1)Nc1ccc([N+](=O)[O-])cc1[N+](=O)[O-] (stereo unspecified) | 0.68 µM | > 10 µM | 0.883 µM
50 | CCCCN(C)C(=O)CSc1nc(NCc2ccccc2)c2ccccc2n1 | 0.361 µM | > 10 µM | > 1.65 µM
51 | COc1cc2nc(Nc3ccc(F)cc3)nc(N)c2cc1OC | 0.139 µM | 18.4 µM | 0.117 µM
52 | COc1ccc(C=Cc2ccc3ccccc3[n+]2C)cc1OC | 0.138 µM | > 100 µM | 0.441 µM
53 | CC(=O)N1CCC(N(C(=O)Nc2c(F)cccc2F)C(C)C)CC1 | 0.625 µM | > 100 µM | > 12.5 µM
54 | CC(CCCC(C)(C)O)Nc1cncc(-c2ccc(C(N)=O)cc2)n1 (stereo unspecified) | > 1.2 µM | > 10 µM | > 1.25 µM
55 | Cc1csc(NC(=O)C2c3ccccc3C(=O)N(CC(C)C)C2c2cccs2)n1 (stereo unspecified) | 0.785 µM | > 10 µM | 0.611 µM
56 | COc1cc(/C=C(\C#N)c2nc3ccccc3[nH]2)ccc1OCc1ccccc1F | 0.919 µM | > 10 µM | > 1.19 µM
57 | N#CC1=C(N)Oc2c3c(c4ccccc4c2C1c1ccc(F)cc1)C(c1ccc(F)cc1)C(C#N)=C(N)O3 (stereo unspecified) | 2.44 µM | 21.6 µM | 4.09 µM
58 | CCCNC(=O)Cn1nc(C)n2c(cc3sccc32)c1=O | > 0.971 µM | > 10 µM | > 1.25 µM
59 | C/C(Cl)=C/Cc1c(C)nc2c(ccc3ccccc32)c1O | 1.28 µM | > 10 µM | 0.857 µM
60 | COC(=O)C1=C(C)NC2=C(C(=O)CC(c3ccc(OC)c(OC)c3)C2)C1c1ccccc1Br (stereo unspecified) | 0.0731 µM | > 100 µM | 0.136 µM
61 | CC(C)OC(=O)c1cccnc1SCC(=O)Nc1ccc(C(F)(F)F)cc1Cl | 1.5 µM | > 100 µM | 5.54 µM
62 | Cc1cccc(NC(=O)c2sc3nc4c(c(-c5cccs5)c3c2N)CCCCC4)c1 | 0.995 µM | > 100 µM | > 12.5 µM
63 | CCOC(=O)C1=C(C)NC2=C(C(=O)CC(c3ccc(OC)c(OC)c3)C2)C1c1ccccc1Br (stereo unspecified) | 0.0267 µM | > 100 µM | 0.0732 µM
64 | CC(C)=CCCC1=CCC(CNCCCN(C)C)C(C)C1 (stereo unspecified) | 0.415 µM | 18.9 µM | 1.75 µM
65 | CN(C)c1cc[n+](Cc2ccccc2)cc1 | > 4.87 µM | > 100 µM | 2.42 µM
66 | CN(C)c1cc[n+](Cc2c(Cl)cccc2Cl)cc1 | 0.598 µM | 0.642 µM | 0.14 µM
67 | CC(=O)Nc1ccc2c(c1)C(=O)N(C(C(=O)NCC(=O)O)C1CCCCC1)[C@@H](CCC(=O)O)C(=O)N2 (stereo partly specified) | 0.109 µM | > 10 µM | > 0.418 µM
